Experiments:
[1] = test system: pre-established Staph aureus biofilms; assay: visual disruption of pre-established biofilms; assay type: cell-based; conditions: disperses biofilms
Protocol: Compound (12,2,0,2,12) causes a visual disruption of pre-established Staph aureus biofilms at 25 μM (micromolar). Thus it at least disperses biofilms at 25 μM.

[2] = test system: S. aureus, E. faecalis, E. coli and P. aeruginosa; assay: MIC determination, statements across the bacteria tested; assay type: cell-based; conditions: S. aureus, E. faecalis, E. coli, P. aeruginosa; read-out: MIC values against all four bacterial species tested
Protocol: For the compounds above, respective minimum inhibitory concentration (MIC) values against the Gram-positive S. aureus, E. faecalis, Gram-negative E. coli and P. aeruginosa were determined, respectively, by standard methods. […] Cell viability was verified by serial dilution and plating on MH agar. Both aqueous and fresh media positive controls were performed for each trial. Overnight bacterial cultures of Staphylococcus aureus (SH1000), Enterococcus faecalis (OG1RF), Escherichia coli (MC4100), and Pseudomonas aeruginosa (PAO1-WT) were grown in Mueller-Hinton broth at 37° C., with all but E. faecalis under shaking Overnight cultures were diluted to approximately 10^6 cfu/mL as determined by OD measurement at 640 nm and plating on MH agar.
Each compound was serially diluted two-fold with water from 1 mM down to 1 μM yielding twelve dilutions per compound. In triplicate, 100 µL of each dilution were pipetted into the appropriate well of a 96-well microtiter plate, and then […] of overnight bacterial culture diluted to ca. 10^6 cfu/mL were inoculated into each well. Microtiter plates were incubated at 37° C. for 72 hours. Up to seven compounds were tested against one bacterial species at twelve decreasing concentrations per 96-well plate.

S. aureus = conditions: pH 7.4; cited from earlier work
B. subtilis = conditions: pH 7.4; cited from earlier work

SMILES: CCCCCCCCCCCC[N+](C)(C)CCN(C)CC[N+](C)(C)CCCCCCCCCCCC.[Br-].[Br-] [Compound 12, 2, 0, 2, 12]
- concentration causing visual disruption of pre-established biofilms [1]: 25 µM
- MIC [2]: ≤ 4 µM

SMILES: N=C(N=C(N)N)Nc1cccc(NC(=N)N=C(N)N)c1 [Compound 11b]
- MBIC S. aureus (S. aureus): 750 ± 250 µM
- MBIC B. subtilis (B. subtilis): 7 ± 3 µM

SMILES: N=C(N=C(N)N)Nc1cccc(NC(=N)N=C(N)N)c1 [Compound 11a]
- MBIC S. aureus (S. aureus): 300 µM
- MBIC B. subtilis (B. subtilis): 30 µM
